US8987474B2 (University of South Florida, priority 2006, dated 2015)
Several values for one entry are separate records, joined by “and”; a condition that tells them apart may be missing. Equal values may be shown once.

Molecular target: Shp2 (Homo sapiens (Human), UniProt Q06124)
Assay: PTP activity assay (DiFMUP substrate) with GST-Shp2
Format: biochemical
Conditions: for IC50: Table II, Shp2
Description: All constructs were verified by DNA sequencing.
Recombinant DEP1 was from Abcam.

Shp2, sequence (Q06124 205-593): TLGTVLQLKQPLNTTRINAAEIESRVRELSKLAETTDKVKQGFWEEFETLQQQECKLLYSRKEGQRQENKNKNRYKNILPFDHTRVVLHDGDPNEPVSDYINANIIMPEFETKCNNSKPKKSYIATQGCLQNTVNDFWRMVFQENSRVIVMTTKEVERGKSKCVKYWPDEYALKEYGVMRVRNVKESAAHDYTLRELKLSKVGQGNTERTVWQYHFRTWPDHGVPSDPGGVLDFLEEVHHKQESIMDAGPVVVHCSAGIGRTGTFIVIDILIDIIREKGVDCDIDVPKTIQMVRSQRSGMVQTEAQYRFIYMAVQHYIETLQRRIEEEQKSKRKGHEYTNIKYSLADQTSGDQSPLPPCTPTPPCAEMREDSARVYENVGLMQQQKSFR

SMILES: O=C1Nc2ccc(S(=O)(=O)NCc3ccccn3)cc2/C1=N/Nc1ccccc1Cl [HL2-016-7]
- % PTP activity (concentration not given): 41 ± 23% (12)

SMILES: CC(C)NS(=O)(=O)c1ccc2c(c1)/C(=N/Nc1cccc(C(=O)NCc3ccccc3)c1)C(=O)N2 [RPM328, N-Benzyl-3-[N′-(5-isopropylsulfamoyl-2-oxo-1,2-dihydro-indol-3-ylidene)hydrazino]benzamide]
- % PTP activity (at 20 μM): 47 ± 3% (2) at 20 μM

SMILES: O=C(O)c1ccc2cc(C(=O)Nc3cccc(S(=O)(=O)O)c3)ccc2c1 [HL2-022-2]
- % PTP activity (concentration not given): 52 ± 17% (5)

SMILES: CCN(CC)C(=O)c1ccc2c(c1)/C(=N/Nc1cccc(C(=O)O)c1)C(=O)N2 [HL2-070-2]
- % PTP activity (at 20 μM): 57.16% (1) at 20 μM

SMILES: O=C(O)c1cc(NC(=O)c2ccc3cc(C(=O)O)ccc3c2)cc(C(=O)O)c1 [HL2-026]
- % PTP activity (concentration not given): 87 ± 14% (6)

SMILES: O=C(O)c1ccc2cc(C(=O)Nc3ccccc3)ccc2c1 [RPM183]
- % PTP activity (concentration not given): 79 ± 16 (7) %

SMILES: CC(C)NS(=O)(=O)c1ccc2c(c1)/C(=N/Nc1ccccc1C(=O)N(C)C)C(=O)N2 [RPM294, 2-[N′-(5-Isopropylsulfamoyl-2-oxo-1,2-dihydro-indol-3-ylidene)hydrazino]-N,N-dimethylbenzamide]
- % PTP activity (at 20 μM): 48 ± 0% (2) At 20 μM

SMILES: CC(C)NS(=O)(=O)c1ccc2c(c1)/C(=N/Nc1cccc(C(=O)NCc3ccco3)c1)C(=O)N2 [RPM333, N-Furan-2-ylmethyl-3-[′-(5-isopropylsulfamoyl-2-oxo-1,2-dihydro-indol-3-ylidene)hydrazino]benzamide]
- IC50: 33 to 100 µM
- % PTP activity (at 20 μM): 48 ± 9% (2) at 20 μM

SMILES: COc1ccc(CNS(=O)(=O)c2ccc3c(c2)/C(=N/Nc2ccccc2Cl)C(=O)N3)cc1 [HL2-016-3]
- % PTP activity (concentration not given): 84 ± 24% (6)

SMILES: CNC(=O)c1ccccc1N/N=C1\C(=O)Nc2ccc(S(=O)(=O)NC(C)C)cc21 [RPM295, 2-[N′-(5-Isopropylsulfamoyl-2-oxo-1,2-dihydro-indol-3-ylidene)hydrazino]-N-methylbenzamide]
- % PTP activity (at 20 μM): 43 ± 2% (2) At 20 μM

SMILES: CC(C)NS(=O)(=O)c1ccc2c(c1)/C(=C/Nc1ccccc1C(=O)O)C(=O)N2 [RPM336, 2-[(5-Isopropylsulfamoyl-2-oxo-1,2-dihydro-indol-3-ylidenemethyl)amino]benzoic acid]
- IC50: 33 to 100 µM
- % PTP activity (at 20 μM): 48 ± 7% (2) at 20 μM

SMILES: COC(=O)c1ccc2cc(C(=O)Nc3c(O)cccc3C(=O)O)ccc2c1 [RPM202]
- IC50: 33 to 100 µM
- % PTP activity (at 20 μM): 58 ± 7% (3) at 20 uM

SMILES: O=C(O)c1ccc2[nH]cc(C(=O)c3ccccc3)c2c1 [RPM352, 3-Benzoyl-1H-indole-5-carboxylic acid]
- % PTP activity (at 20 μM): 57 ± 9% (2) at 20 μM

SMILES: COCCNC(=O)c1cccc(N/N=C2\C(=O)Nc3ccc(S(=O)(=O)NC(C)C)cc32)c1 [RPM327, 3-[N′-(5-Isopropylsulfamoyl-2-oxo-1,2-dihydro-indol-3-ylidene)hydrazino]-N-(2-methoxyethyl)benzamide]
- % PTP activity (at 20 μM): 44 + 7% (2) at 20 μM

SMILES: O=C1Nc2ccccc2/C1=N/Nc1ccccc1Cl [HL1-050-1]
- IC50: 33 to 100 µM
- % PTP activity (concentration not given): 99 ± 2% (3)

SMILES: O=C1Nc2ccc(S(=O)(=O)NCC3CCCO3)cc2/C1=N/Nc1ccccc1Cl (stereo not drawn) [HL2-016-14]
- % PTP activity (concentration not given): 42 ± 5% (6)

SMILES: O=C1Nc2ccc(S(=O)(=O)NCc3ccc(Cl)cc3)cc2/C1=N/Nc1ccccc1C(=O)O [RPM191, 2-[N′-[5-(4-Chloro-benzylsulfamoyl)-2-oxo-1,2-dihydro-indol-3-ylidene]hydrazino}benzoic acid]
- IC50: 33 to 100 µM
- % PTP activity (at 20 μM): 65.07% and 53.99%

SMILES: CCc1ccccc1N/N=C1\C(=O)Nc2ccc(C(=O)O)cc21 [RPM320, 3-[(2-Ethylphenyl)hydrazono]-2-oxo-2,3-dihydro-1H-indole-5-carboxylic acid]
- % PTP activity (at 20 μM): 44 ± 5% (2) At 20 μM

SMILES: CCc1ccccc1N/N=C1\C(=O)Nc2ccc(S(=O)(=O)O)cc21 [RPM219, 2-Oxo-3-[(2-ethylphenylhydrazono)]-2,3-dihydro-1H-indole-5-sulfonic acid]
- IC50: 33 to 100 µM
- % PTP activity (at 20 μM): 89 ± 2% (3) at 20 μM

SMILES: CC(C)CNS(=O)(=O)c1ccc2c(c1)/C(=N/Nc1ccccc1Cl)C(=O)N2 [HL2-016-10]
- % PTP activity (concentration not given): 36 ± 17 (12) %

SMILES: O=C1Nc2ccc(C(=O)NCc3ccc(Cl)cc3)cc2/C1=N/Nc1ccccc1C(=O)O [HL2-070-4]
- % PTP activity (at 20 μM): 30 ± 4% (2) at 20 μM

SMILES: O=C1Nc2ccc(S(=O)(=O)O)cc2/C1=N/Nc1c(Cl)cccc1Cl [RPM218, 2-Oxo-3-[(2,6-dichlorophenylhydrazono)]-2,3-dihydro-1H-indole-5-sulfonic acid]
- IC50: 33 to 100 µM
- % PTP activity (at 20 μM): 53 ± 0.1% (2) at 20 μM

SMILES: O=C1Nc2ccc(S(=O)(=O)O)cc2/C1=N/Nc1ccccc1 [RPM215, 2-Oxo-3-(phenylhydrazono)-2,3-dihydro-1H-indole-5-sulfonic acid]
- % PTP activity (at 20 μM): 51 ± 3% (3) at 20 μM

SMILES: NS(=O)(=O)c1ccc2c(c1)/C(=N/Nc1ccccc1C(=O)O)C(=O)N2 [RPM188, 2-[N′-(2-Oxo-5-sulfamoyl-1,2-dihydro-indol-3-ylidene)hydrazino]benzoic acid]
- % PTP activity (at 20 μM): 65 ± 3% (3) at 20 μM

SMILES: O=C1Nc2ccc(S(=O)(=O)O)cc2/C1=N/Nc1cccc([N+](=O)[O-])c1 [HL1-058-2]
- IC50: 33 to 100 µM
- % PTP activity (concentration not given): 73 ± 7% (3)

SMILES: COCCNC(=O)c1ccccc1N/N=C1\C(=O)Nc2ccc(S(=O)(=O)NC(C)C)cc21 [RPM285, 2-[N′-(5-Isopropylsulfamoyl-2-oxo-1,2-dihydro-indol-3-ylidene)-hydrazino]-N-(2-methoxyethyl)benzamide]
- % PTP activity (at 20 μM): 51 ± 7% (2) At 20 μM

SMILES: O=C1Nc2ccc(S(=O)(=O)NCc3cccs3)cc2/C1=N/Nc1ccccc1Cl [HL2-016-6]
- % PTP activity (concentration not given): 51 ± 3% (6)

SMILES: CC(C)NS(=O)(=O)c1ccc2c(c1)/C(=C/Nc1ccccc1[N+](=O)[O-])C(=O)N2 [RPM303, 3-[(2-Nitrophenylamino)methylene]-2-oxo-2,3-dihydro-1H-indole-5-sulfonic acid isopropylamide]
- % PTP activity (at 20 μM): 46 ± 1% (2) 20 μM

SMILES: O=C1Nc2ccc(C(=O)O)cc2/C1=N/Nc1ccccc1 [RPM272, 3-(Phenylhydrazono)-2-oxo-2,3-dihydro-1H-indole-5-carboxylic acid]
- % PTP activity (at 20 μM): 43 ± 4% at 20 μM

SMILES: O=C1Nc2ccccc2/C1=N/Nc1cccc([N+](=O)[O-])c1 [HL1-050-2]
- % PTP activity (concentration not given): 32 ± 3% (3)

SMILES: O=C1Nc2ccc(S(=O)(=O)O)cc2/C1=N/Nc1ccccc1Cl [HL1-058-1]
- IC50: 33 to 100 µM
- % PTP activity (concentration not given): 69 ± 9% (2)

SMILES: O=C1Nc2ccc(C(=O)O)cc2/C1=N/Nc1ccccc1F [RPM319]
- IC50: > 100 µM
- % PTP activity (at 20 μM): 49 ± 4% (2) At 20 μM

SMILES: CCN1C(=O)/C(=N\Nc2ccccc2[N+](=O)[O-])c2cc(S(=O)(=O)N(C)C)ccc21 [RPM176, 1-Ethyl-3-[(2-nitro-phenyl)-hydrazono]-2-oxo-2,3-dihydro-1H-indole-5-sulfonic acid dimethylamide]
- % PTP activity (concentration not given): 50% ± 5% (6)

SMILES: O=C1Nc2ccc(S(=O)(=O)NCC3CCCO3)cc2/C1=N/Nc1ccccc1[N+](=O)[O-] (stereo not drawn) [RPM172, 3-[(2-Nitrophenyl)hydrazono]-2-oxo-2,3-dihydro-1H-indole-5-sulfonic acid (tetrahydrofuran-2-ylmethyl)amide]
- % PTP activity (concentration not given): 35 ± 5% (12)

SMILES: COc1cccc(CNS(=O)(=O)c2ccc3c(c2)/C(=N/Nc2ccccc2[N+](=O)[O-])C(=O)N3)c1 [RPM137, 3-[(2-Nitrophenyl)hydrazono]-2-oxo-2,3-dihydro-1H-indole-5-sulfonic acid 3-methoxybenzylamide]
- % PTP activity (concentration not given): 31 ± 4% (12)
